Laboratory results from publication PMC12261233, “Photoactivatable Cyclometalated Ir(III) Compound Penetrates the Blood-Brain Barrier in 3D Spheroidal and Advanced 3D Organoid Models of Inherently Resistant and Aggressive Brain Tumors” (ACS Pharmacology & Translational Science, 2025).

What was measured:
[1] = Photocatalytic oxidation of NADH under blue light; format: biochemical; settings: blue light 465 nm, 4.8 mW cm^–2; NADH 100 µM, complex 5 µM
Description: Photostability is essential for PDT agents, as photobleaching can compromise their effectiveness. […] Control experiments in the absence of Ir(III) complexes (Figure S24) or light (Figure S25) corroborated the photocatalytic character of this transformation. […] Additionally, singlet oxygen (^1O2) is the primary cytotoxic species in Type II PDT. , The ability of complexes Ir3–Ir5 and Ir10 to generate singlet oxygen was evaluated by measuring the decrease in […] (DPBF) absorbance at 411 nm under blue light irradiation (Figure S26). […] This confirmed the production of hydroxyl radicals, particularly with complexes Ir3 and Ir10, after 8 min of irradiation (Figure S29).
1. Photocatalytic properties of complexes Ir1−Ir10 in cell-free media.
1.1. Photooxidation of NADH.
The ability of the complexes to photocatalyse the oxidation of NADH was evaluated by recording the absorption spectra of NADH (100 µM) in the presence of complex (5 µM) in PBS (5% DMF) upon blue light irradiation (EXPO-Panels from Luzchem (Canadá)) (465 nm, 5.0 […]
1.2. Quantum yields for the generation of 1O2. […]
Where ΦΔR is the reference quantum yield, mR and mS are the slopes of the reference and sample, respectively, and AR and AS are the absorbance of the reference and the sample at the […]

[2] = system: cerebral organoid with U87MG spheroid implant; test: Distribution of compound in organoid-spheroid implant model (confocal); format: cell-based, human; settings: 5 μM
Description: An implant fusion model was established to monitor the distribution of Ir4 within the tumor, represented by the implanted tumorspheres generated from U87MG, and healthy tissue, represented by the hiPSC-derived cerebral organoid. Before the implantation procedure, spheroids derived from U87MG glioblastoma were cultured for 72 h under 3D forming conditions using ULA plates (96-well U-shaped plate, Corning) in DMEM-F12 supplemented with 2% B27, epidermal growth factor (EGF) at 20 ng mL^–1, fibroblast growth factor 2 (FGF2) at 10 ng mL^–1, and BSA (0.15%). Cerebral organoids were generated through a four-step directed differentiation process from human induced pluripotent stem cells (hiPSCs, Gibco). The hiPSCs were cultured on Geltrex matrix (hESC-Qualified, Reduced Growth Factor Basement Membrane Matrix; Gibco) in StemFlex basal medium (DMEM/F12, Ham, 1:1) fully supplemented with StemFlex supplement (Gibco). […] After the initial differentiation phase, early organoids were monitored for the development of optically clear neuroectoderm (characterized by an optically bright, translucent surface) and the formation of large buds of translucent ectoderm that were not radially organized. […] The samples were then transferred to confocal Petri dishes containing drug-free cerebral maturation medium and analyzed using a confocal microscope (Leica CM SP5, Leica, Germany).

Structure (SMILES) | Turnover Frequency (TOF) of NADH photo-oxidation [1] | distribution in organoid-spheroid fusion system [2]
Cc1ccc(-c2cc3[n+]4c(c2)-c2cccc[n+]2[Ir-3]42([Cl])([c]4cc5ccccc5cc4-c4n(Cc5ccc(C(F)(F)F)cc5)c5ccccc5[n+]42)[n+]2ccccc2-3)cc1.F[P-](F)(F)(F)(F)F [Ir3] | about 110 h^–1 | 
CCCCn1c2[n+](c3cc(C(=O)OC)ccc31)[Ir-3]13([Cl])([c]4ccccc4-2)[n+]2ccccc2-c2cc(-c4ccc(C)cc4)cc([n+]21)-c1cccc[n+]13.F[P-](F)(F)(F)(F)F [Ir4] |  | predominantly accumulated in malignant tissues
